Reference: patent US10208033B2, “β-carboline, dihydro-β-carboline and tetrahydro-β-carboline alkaloid derivatives and preparation methods same and use in aspects of preventing and treating plant viruses, fungicides and insecticides” (NANKAI UNIVERSITY, priority 2013, dated 2019)
Like-named read-outs stand apart in the source and are kept apart here.

Key:
Bipolaria maydis = assay: organism not typed; type: cell-based; conditions: 50 mg/kg
Rhizoctonia cereali = assay: Fungicidal (bactericidal) activity in vitro, PDA colony diameter; type: cell-based; conditions: 50 mg/kg
Rhizoctonia solani = assay: as above; type: cell-based; conditions: 50 mg/kg
[1] = test system: tobacco mosaic virus (TMV); assay: Anti-TMV in vivo inactivation; parameters: species or system tobacco mosaic virus (host Nicotiana tabacum L.cv.Xanthi NN)
Fusarium fujikuroi = assay: Fungicidal (bactericidal) activity in vitro, PDA colony diameter; type: cell-based; conditions: 50 mg/kg
cucumber fusarium wilt = assay: as above; type: cell-based
Sclerotinia scleotiorum = assay: as above; type: cell-based; conditions: 50 mg/kg
Alternaria solani = assay: as above; type: cell-based; conditions: 50 mg/kg
Phytophthora capsici = assay: as above; type: cell-based; conditions: 50 mg/kg
mosquito larvae = assay: whole plant or invertebrate; conditions: concentration 10 mg/kg, 24 h
In short: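 Early fourth-instar Culex pipiens pallens larvae from an indoor colony, 10 per beaker, exposed to test compound at 5 ppm in water, diluted from a 1000 ppm acetone mother solution. Blank: water containing 0.5 mL test solvent.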

corn borers = conditions: concentration 600 mg/kg
[2] = test system: Colletotrichum orbiculare; assay: Fungicidal (bactericidal) activity in vitro, PDA colony diameter; type: cell-based; conditions: 50 mg/kg
Fusarium graminearumt = assay: microbe, parasite or virus in culture; type: cell-based; conditions: 50 mg/kg
Macrophoma kawatsukai = assay: Fungicidal (bactericidal) activity in vitro, PDA colony diameter; type: cell-based; conditions: 50 mg/kg
[3] = test system: tobacco mosaic virus (TMV); assay: Anti-TMV in vivo therapeutic effect; parameters: species or system tobacco mosaic virus (host Nicotiana tabacum L.cv.Xanthi NN)
potato late blight = assay: microbe, parasite or virus in culture; type: cell-based
[4] = test system: tobacco mosaic virus (TMV); assay: Anti-TMV in vivo protective effect; parameters: species or system tobacco mosaic virus (host Nicotiana tabacum L.cv.Xanthi NN)
Botrytis cinerea = assay: Fungicidal (bactericidal) activity in vitro, PDA colony diameter; type: cell-based; conditions: 50 mg/kg
Cercospora arachidicola = assay: as above; type: cell-based; conditions: 50 mg/kg
armyworms = type: in vivo; conditions: concentration 600 mg/kg
cotton bollworms = assay: whole plant or invertebrate; conditions: concentration 600 mg/kg
Description: Experimental method of cotton bollworms: feed and drug mixing method: measure 3 mL of prepared solution and add it to about 27 g of newly prepared feed, thereby obtaining needed concentration through dilution by 10 times.

[5] = test system: tobacco mosaic virus (TMV); assay: Anti-TMV in vitro effect (half-leaf soaking); type: cell-based, tobacco mosaic virus (host Nicotiana tabacum L.cv.Xanthi NN)

Compound | Bactericidal activity (%) Bipolaria maydis (Bipolaria maydis) [%] | Bactericidal activity (%) Rhizoctonia cereali (Rhizoctonia cereali) [%] | Bactericidal activity (%) Rhizoctonia solani (Rhizoctonia solani) [%] | Relative inhibition rate (%) In vivo inactivation ([1]; treatment dose 100 μg/mL) [%] | Relative inhibition rate (%) In vivo inactivation ([1]; treatment dose 500 μg/mL) [%] | Bactericidal activity (%) Fusarium fujikuroi (Fusarium fujikuroi) [%] | Bactericidal activity (%) Sclerotinia scleotiorum (Sclerotinia scleotiorum) [%] | Bactericidal activity (%) Alternaria solani (Alternaria solani) [%] | Bactericidal activity (%) Phytophthora capsici (Phytophthora capsici) [%] | Mosquito larvae Mortality (%) (mosquito larvae) | Corn borer Mortality (%) (corn borers) | Bactericidal activity (%) Colletotrichum orbiculare [2] [%] | Bactericidal activity (%) Fusarium graminearumt (Fusarium graminearumt) [%] | Bactericidal activity (%) Macrophoma kawatsukai (Macrophoma kawatsukai) [%] | Relative inhibition rate (%) In vivo therapy ([3]; treatment dose 100 μg/mL) [%] | Relative inhibition rate (%) In vivo therapy ([3]; treatment dose 500 μg/mL) [%] | Bactericidal activity (%) potato late blight (potato late blight) [%] | Relative inhibition rate (%) In vivo protection ([4]; treatment dose 100 μg/mL) [%] | Relative inhibition rate (%) In vivo protection ([4]; treatment dose 500 μg/mL) [%] | Bactericidal activity (%) Botrytis cinerea (Botrytis cinerea) [%] | other results
O=C(O)/C=C/c1cc2c([nH]c3ccccc32)c(-c2cccs2)n1 [Ia-15, (E)-3-(1-(thiophene-2)-pyridino [3,4-b]indol-3)-acrylic acid] | 73.7 | 81.3 | 17.9 | 13.5 | 39.6 | 64.3 | 76.0 | 22.2 | 66.7 | 35 | 5 | 66.7 | 78.6 | 58.8 | 10 | 36.2 | 55.0 | 10.2 | 35.1 | 68.2 | Bactericidal activity (%) Cucumber fusarium wilt (cucumber fusarium wilt; 50 mg/kg): 33.3%; Bactericidal activity (%) Cercospora arachidicola (Cercospora arachidicola): 21.4%; Armyworm Mortality (%) (armyworms): 15%; Cotton bollworm Mortality (%) (cotton bollworms): 15%; Relative inhibition rate (%) In vitro activity ([5]; treatment dose 100 μg/mL): 0%; Relative inhibition rate (%) In vitro activity ([5]; treatment dose 500 μg/mL): 40.2%
Cc1nnsc1C(=O)NNC(=O)[C@@H]1Cc2c([nH]c3ccccc23)[C@H](C)N1 [Id-2, 4-methyl-N′-((1S, 3S)-1-methyl-2,3,4,9-tetrahydropyridino [3,4-b]indol-3-triformyl)-1,2,3-thiadiazole-5-formylhydrazine] | 28.0 | 45.9 | 0.0 | 9.8 | 42.9 | 29.4 | 19.2 | 14.3 | 6.1 | 80 | 40 | 24.0 | 53.8 | 39.4 | 19.1 | 48.8 | 30.4 | 16 | 51.3 | 61.1 | Bactericidal activity (%) Cucumber fusarium wilt (cucumber fusarium wilt; 50 mg/kg): 4.5%; Bactericidal activity (%) Cercospora arachidicola (Cercospora arachidicola): 18.2%; Armyworm Mortality (%) (armyworms): 40%; Cotton bollworm Mortality (%) (cotton bollworms): 40%; Relative inhibition rate (%) In vitro activity ([5]; treatment dose 100 μg/mL): 13.5%; Relative inhibition rate (%) In vitro activity ([5]; treatment dose 500 μg/mL): 41.2%
C[C@@H]1N[C@H](C(=O)NN=Cc2ccco2)Cc2c1[nH]c1ccccc21 [Ic-18, (1S, 3S)—N′-(furan-2-methylene)-1-methyl-2,3,4,9-tetrahydropyridino [3,4-b] indol-3-formylhydrazine] | 20.0 | 68.6 | 32.9 | 18.2 | 54.6 | 28.6 | 64.7 | 35.0 | 39.5 | 25 | 15 | 33.3 | 6.9 | 69.4 | 9.3 | 44.2 | 36.0 | 11.5 | 47.5 | 81.8 | Bactericidal activity (%) Cucumber fusarium wilt (cucumber fusarium wilt): 11.5%; Bactericidal activity (%) Cercospora arachidicola (Cercospora arachidicola): 52.9%; Armyworm Mortality (%) (armyworms): 10%; Cotton bollworm Mortality (%) (cotton bollworms): 20%; Relative inhibition rate (%) In vitro activity ([5]; treatment dose 100 μg/mL): 15.4%; Relative inhibition rate (%) In vitro activity ([5]; treatment dose 500 μg/mL): 48.8%
C[C@@H]1N[C@H](C(=O)NN=Cc2ccc3c(c2)OCCO3)Cc2c1[nH]c1ccccc21 [Ic-13] | 52.0 | 89.2 | 44.4 | 15.2 | 43.6 | 47.1 | 21.2 | 52.4 | 84.8 | 60 | 35 | 72.0 | 30.8 | 66.7 | 18.6 | 48.1 | 30.4 | 10.3 | 46 | 66.7 | Bactericidal activity (%) Cucumber fusarium wilt (cucumber fusarium wilt; 50 mg/kg): 22.7%; Bactericidal activity (%) Cercospora arachidicola (Cercospora arachidicola): 45.5%; Armyworm Mortality (%) (armyworms): 30%; Cotton bollworm Mortality (%) (cotton bollworms): 15%; Relative inhibition rate (%) In vitro activity ([5]; treatment dose 100 μg/mL): 19.8%; Relative inhibition rate (%) In vitro activity ([5]; treatment dose 500 μg/mL): 46.5%
